# Experimental data as given in ChEMBL document CHEMBL3885861, “Open TG-GATES”.
# Species on record: Rattus norvegicus
# Experiment: Open TG-GATES - Regimen: Single
# Format: toxicity, organism-based, Sprague-Dawley
# Parameters: regimen Single, gender Male, age 6 weeks
# Conditions: in vivo, po, route gavage; for TG / TP / gamma-GTP / ALT / AST / CRE / Ca / Cl / DBIL / GLC / K / LDH / Na / PL / RALB / TBIL / TC: tissue Plasma; for KIDNEY_L / KIDNEY_R / KIDNEY_TOTAL: tissue Kidney; for LIVER: tissue Liver
# [1] = 0 mg/kg, 24 h, dose level Control
# [2] = 80 mg/kg, 3 h, tissue Blood, dose level Low
# [3] = 80 mg/kg, 6 h, tissue Blood, dose level Low
smiles,measurement,setting,value
COc1ccc([C@@H]2Sc3ccccc3N(CCN(C)C)C(=O)[C@@H]2OC(C)=O)cc1 [DILTIAZEM],TG,[1],84.2 mg/dL
same,TP,[1],5.4 g/dL
same,gamma-GTP,[1],1 IU/L
same,TERMINAL_BW,"80 mg/kg, 3 h, dose level Low",186.4 g
same,APTT,[2],17.7 s
same,Bas,[2],0.4%
same,Eos,[2],0.2%
same,Fbg,[2],282.2 mg/dL
same,Hb,[2],12.8 g/dL
same,Ht,[2],40%
same,Lym,[2],70.8%
same,MCHC,[2],32.1%
same,MCV,[2],66.5 fL
same,Mono,[2],3.4%
same,PT,[2],14.7 s
same,Plat,[2],124.6 x10_4/uL
same,RBC,[2],601.8 x10_4/ul
same,WBC,[2],115.4 x10_2/uL
same,KIDNEY_L,"80 mg/kg, 3 h, dose level Low",0.9 g
same,KIDNEY_R,"80 mg/kg, 3 h, dose level Low",0.8 g
same,KIDNEY_TOTAL,"80 mg/kg, 3 h, dose level Low",1.7 g
same,LIVER,"80 mg/kg, 3 h, dose level Low",8.4 g
same,ALT,"80 mg/kg, 3 h, dose level Low",50.8 IU/L
same,AST,"80 mg/kg, 3 h, dose level Low",85.6 IU/L
same,CRE,"80 mg/kg, 3 h, dose level Low",0.2 mg/dL
same,Ca,"80 mg/kg, 3 h, dose level Low",10.8 mg/dL
same,Cl,"80 mg/kg, 3 h, dose level Low",106.6 meq/L
same,DBIL,"80 mg/kg, 3 h, dose level Low",0.014 mg/dL
same,GLC,"80 mg/kg, 3 h, dose level Low",183.4 mg/dL
same,K,"80 mg/kg, 3 h, dose level Low",4.5 meq/L
same,LDH,"80 mg/kg, 3 h, dose level Low",74.8 IU/L
same,Na,"80 mg/kg, 3 h, dose level Low",142.2 meq/L
same,PL,"80 mg/kg, 3 h, dose level Low",134.8 mg/dL
same,RALB,"80 mg/kg, 3 h, dose level Low",2.5 g/dL
same,TBIL,"80 mg/kg, 3 h, dose level Low",0.032 mg/dL
same,TC,"80 mg/kg, 3 h, dose level Low",71.8 mg/dL
same,TG,"80 mg/kg, 3 h, dose level Low",60.2 mg/dL
same,TP,"80 mg/kg, 3 h, dose level Low",5.1 g/dL
same,gamma-GTP,"80 mg/kg, 3 h, dose level Low",1.2 IU/L
same,TERMINAL_BW,"80 mg/kg, 6 h, dose level Low",182.6 g
same,APTT,[3],17 s
same,Bas,[3],0%
same,Eos,[3],0.8%
same,Fbg,[3],314.8 mg/dL
same,Ht,[3],40.5%
same,Lym,[3],71.2%
same,MCHC,[3],32.4%
same,MCV,[3],67 fL
same,Mono,[3],4.2%
same,PT,[3],14.7 s
same,Plat,[3],131.5 x10_4/uL
same,RBC,[3],606 x10_4/ul
same,WBC,[3],91.6 x10_2/uL
same,KIDNEY_L,"80 mg/kg, 6 h, dose level Low",0.8 g
same,KIDNEY_R,"80 mg/kg, 6 h, dose level Low",0.8 g
same,KIDNEY_TOTAL,"80 mg/kg, 6 h, dose level Low",1.6 g
same,LIVER,"80 mg/kg, 6 h, dose level Low",7.9 g
same,ALT,"80 mg/kg, 6 h, dose level Low",42.4 IU/L
same,AST,"80 mg/kg, 6 h, dose level Low",72.8 IU/L
same,CRE,"80 mg/kg, 6 h, dose level Low",0.2 mg/dL
same,Ca,"80 mg/kg, 6 h, dose level Low",11.1 mg/dL
same,Cl,"80 mg/kg, 6 h, dose level Low",106.8 meq/L
same,DBIL,"80 mg/kg, 6 h, dose level Low",0.014 mg/dL
same,GLC,"80 mg/kg, 6 h, dose level Low",176.8 mg/dL
same,K,"80 mg/kg, 6 h, dose level Low",4.1 meq/L
same,LDH,"80 mg/kg, 6 h, dose level Low",54 IU/L
same,Na,"80 mg/kg, 6 h, dose level Low",143.8 meq/L
same,PL,"80 mg/kg, 6 h, dose level Low",137.4 mg/dL
same,RALB,"80 mg/kg, 6 h, dose level Low",2.5 g/dL
same,TBIL,"80 mg/kg, 6 h, dose level Low",0.034 mg/dL
same,TC,"80 mg/kg, 6 h, dose level Low",79 mg/dL
